# Measured values from ChEMBL document CHEMBL1201862, “PubChem BioAssay data set” (2004).
#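 A five-concentration, 48-hour dose response in 96-well plates underlies each endpoint, interpolated linearly between surrounding concentrations. The concentration for 50% growth inhibition is given as GI50.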 Calls of active or inactive are those of the source. Rule as the data show it: active = GI50 up to about 1.1 µM and inactive = higher.
# Tests used:
# Experiment in all cases: inhibition of tumour cell growth, NCI panel, 48 h
# OVCAR-5 = system: OVCAR-5
# UO-31 = system: UO-31
# SNB-78 = system: SNB-78
# SNB-19 = system: SNB-19
# HCT-15 = system: HCT-15
# SF-539 = system: SF-539
# HL-60 = system: HL-60
# SN12C = system: SN12C
# HT-29 = system: HT-29
# NCI-H226 = system: NCI-H226
# XF498 = system: XF498
# HCC 2998 = system: HCC 2998
# NCI-H522 = system: NCI-H522
# M14 = system: M14
# NCI-H460 = system: NCI-H460
# TK-10 = system: TK-10
# SK-MEL-5 = system: SK-MEL-5
# UACC-62 = system: UACC-62
# ACHN = system: ACHN
# UACC-257 = system: UACC-257
# SF-268 = system: SF-268
# LXFL 529 = system: LXFL 529
# SF-295 = system: SF-295
# MOLT-4 = system: MOLT-4
# SK-MEL-2 = system: SK-MEL-2
# OVCAR-4 = system: OVCAR-4
# COLO 205 = system: COLO 205
# HOP-92 = system: HOP-92
# HOP-18 = system: HOP-18
# RXF 393 = system: RXF 393
# K562 = system: K562
# Malme-3M = system: Malme-3M
# DMS-114 = system: DMS-114
# CAKI-1 = system: CAKI-1
# SK-MEL-28 = system: SK-MEL-28
# KM-20L2 = system: KM-20L2
# OVCAR-3 = system: OVCAR-3
# NCI-H23 = system: NCI-H23
# M19-MEL = system: M19-MEL
# OVCAR-8 = system: OVCAR-8
# 786-0 = system: 786-0
# SW-620 = system: SW-620
# A498 = system: A498
# LOX IMVI = system: LOX IMVI
# HCT-116 = system: HCT-116
# IGROV-1 = system: IGROV-1
# U-251 = system: U-251
# A549 = system: A549
# DLD-1 = system: DLD-1
# DMS-273 = system: DMS-273
# HOP-62 = system: HOP-62
# SR = system: SR
# KM12 = system: KM12
# CCRF-CEM = system: CCRF-CEM
# SK-OV-3 = system: SK-OV-3
# EKVX = system: EKVX
# SNB-75 = system: SNB-75
compound,measurement,setting,value
CCOc1ccccc1Nc1nc(C)c(C(=O)CC(=O)C(=O)Nc2ccccc2)s1,GI50,OVCAR-5,> 100 µM (inactive)
same,GI50,UO-31,32.2 µM (inactive)
same,GI50,SNB-78,> 100 µM (inactive)
same,GI50,SNB-19,91.8 µM (inactive)
same,GI50,HCT-15,41.9 µM
same,GI50,SF-539,> 100 µM (inactive)
same,GI50,HL-60,20.3 µM (inactive)
same,GI50,SN12C,34.8 µM (inactive)
same,GI50,HT-29,37.1 µM (inactive)
same,GI50,NCI-H226,24.3 µM (inactive)
same,GI50,XF498,31.6 µM (inactive)
same,GI50,HCC 2998,52.7 µM (inactive)
same,GI50,NCI-H522,30.9 µM (inactive)
same,GI50,M14,> 100 µM (inactive)
same,GI50,NCI-H460,49.7 µM (inactive)
same,GI50,TK-10,73.8 µM (inactive)
same,GI50,SK-MEL-5,49.2 µM (inactive)
same,GI50,UACC-62,37.9 µM (inactive)
same,GI50,ACHN,37.8 µM (inactive)
same,GI50,UACC-257,50.9 µM (inactive)
same,GI50,SF-268,> 100 µM (inactive)
same,GI50,LXFL 529,43.3 µM (inactive)
same,GI50,SF-295,54.1 µM (inactive)
same,GI50,MOLT-4,23.8 µM (inactive)
same,GI50,SK-MEL-2,37.3 µM (inactive)
same,GI50,OVCAR-4,11 µM (inactive)
same,GI50,COLO 205,49.3 µM (inactive)
same,GI50,HOP-92,36.6 µM (inactive)
same,GI50,HOP-18,> 100 µM (inactive)
same,GI50,RXF 393,99.1 µM (inactive)
same,GI50,K562,34.8 µM (inactive)
same,GI50,Malme-3M,> 100 µM (inactive)
same,GI50,DMS-114,35.5 µM (inactive)
same,GI50,CAKI-1,47.8 µM (inactive)
same,GI50,SK-MEL-28,> 100 µM (inactive)
same,GI50,KM-20L2,66.4 µM (inactive)
same,GI50,OVCAR-3,22.2 µM (inactive)
same,GI50,NCI-H23,36.2 µM (inactive)
same,GI50,M19-MEL,36.5 µM (inactive)
same,GI50,OVCAR-8,78.9 µM (inactive)
same,GI50,786-0,99.8 µM (inactive)
same,GI50,SW-620,72.4 µM (inactive)
same,GI50,A498,88.5 µM (inactive)
same,GI50,LOX IMVI,40.7 µM (inactive)
same,GI50,HCT-116,51.8 µM (inactive)
same,GI50,IGROV-1,> 100 µM (inactive)
same,GI50,U-251,36.6 µM (inactive)
same,GI50,A549,62.8 µM (inactive)
same,GI50,DLD-1,37.3 µM (inactive)
same,GI50,DMS-273,54.2 µM (inactive)
same,GI50,HOP-62,> 100 µM (inactive)
same,GI50,SR,49.7 µM (inactive)
same,GI50,KM12,45.6 µM (inactive)
same,GI50,CCRF-CEM,39.1 µM (inactive)
same,GI50,SK-OV-3,> 100 µM (inactive)
same,GI50,EKVX,42.4 µM (inactive)
same,GI50,SNB-75,25.2 µM (inactive)
